The text below walks through data of patent US9994551B2, “Pyridazine derivatives as RORc modulators” (Genentech, Inc., priority 2015, dated 2018).

In the assay the target is T1, RORc ligand binding domain (Homo sapiens, UniProt P51449).
T1 construct: host or cells: E. coli
T1 sequence (P51449 269-508 limits assumed): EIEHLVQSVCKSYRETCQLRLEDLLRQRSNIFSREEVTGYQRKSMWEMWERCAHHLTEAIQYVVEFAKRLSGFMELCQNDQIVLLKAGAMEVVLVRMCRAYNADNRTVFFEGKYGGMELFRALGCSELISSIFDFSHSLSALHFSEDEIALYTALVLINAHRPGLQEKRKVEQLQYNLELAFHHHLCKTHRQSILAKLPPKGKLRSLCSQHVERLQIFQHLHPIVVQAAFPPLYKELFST
Nature of the assay: In vitro RORc ligand binding assay (25-[3H]hydroxycholesterol displacement, filter binding).
In general, IC50 refers to the concentration needed to halve the response being measured. A high value points to weaker potency in that assay. On to `CC[C@@H](O[C@@]12CC[C@@H](c3cc(-c4c(F)cccc4F)nnc31)C2(C)C)C(N)=O` [Compound 31, (R)-2-(((5S,8R)-3-(2,6-difluorophenyl)-9,9-dimethyl-5,6,7,8-tetrahydro-5,8-methanocinnolin-8-yl)oxy)butanamide], for which the IC50 was determined as 8.8 nM.

Consider `CC1(C)[C@H]2CC[C@]1(Oc1cncnc1)c1nnc(-c3c(F)cccc3F)cc12` [Compound 28, (5S,8R)-3-(2,6-difluorophenyl)-9,9-dimethyl-8-(pyrimidin-5-yloxy)-5,6,7,8-tetrahydro-5,8-methanocinnoline], for which the IC50 is 185 nM.

In turn, `CC1(C)[C@H]2CC[C@]1([C@@H]1CN(C(N)=O)CCN1)c1nnc(-c3c(F)cccc3F)cc12` [Compound 184, 3-[5-(2,6-difluorophenyl)-11,11-dimethyl-3,4-diazatricyclo[6.2.1.02,7]undeca-2,4,6-trien-1-yl]piperazine-1-carboxamide] had an IC50 of 29 nM.

Compound `CC1(C)[C@H]2CC[C@]1(Oc1ccccn1)c1nnc(-c3c(F)cccc3F)cc12` [Compound 12, (5S,8R)-3-(2,6-difluorophenyl)-9,9-dimethyl-8-(pyridin-2-yloxy)-5,6,7,8-tetrahydro-5,8-methanocinnoline] showed an IC50 of 42.5 nM.

`CC1(C)[C@H]2CC[C@]1(Oc1ccccc1)c1nnc(-c3c(F)cccc3F)cc12` [Compound 24, (5S,8R)-3-(2,6-difluorophenyl)-9,9-dimethyl-8-phenoxy-5,6,7,8-tetrahydro-5,8-methanocinnoline]: the IC50 was determined as 14.4 nM.

In the case of `CN(C)C(=O)N1CCO[C@H]([C@@]23CC[C@@H](c4cc(-c5c(F)cccc5F)nnc42)C3(C)C)C1` [Compound 88, (R)-2-((5R,8R)-3-(2,6-difluorophenyl)-9,9-dimethyl-5,6,7,8-tetrahydro-5,8-methanocinnolin-8-yl)-N,N-dimethylmorpholine-4-carboxamide], the IC50 was 369 nM. Compared with the last compound, the IC50 is about 26-fold higher.

`CC1(C)[C@H]2CC[C@]1([C@H]1CCCN(c3ccncn3)C1)c1nnc(-c3c(F)cccc3F)cc12` [Compound 164, 5-(2,6-difluorophenyl)-11,11-dimethyl-1-(1-pyrimidin-4-yl-3-piperidyl)-3,4-diazatricyclo[6.2.1.02,7]undeca-2,4,6-triene] registered an IC50 of 20 nM.

Compound `CC[C@H](O[C@@]12CC[C@@H](c3cc(-c4c(F)cccc4F)nnc31)C2(C)C)C(=O)OC` [Compound 110, methyl (2S)-2-[[(1R,8S)-5-(2,6-difluorophenyl)-11,11-dimethyl-3,4-diazatricyclo[6.2.1.02,7]undeca-2,4,6-trien-1-yl]oxy]butanoate] came in with an IC50 of 100 nM.

In the case of `CN(C)C(=O)N1CCC[C@H]([C@@]23CC[C@@H](c4cc(-c5c(F)cccc5F)nnc42)C3(C)C)C1` [Compound 97, (R)-3-((5R,8R)-3-(2,6-difluorophenyl)-9,9-dimethyl-5,6,7,8-tetrahydro-5,8-methanocinnolin-8-yl)-N,N-dimethylpiperidine-1-carboxamide], the IC50 is 98.5 nM.

The compound `Cc1coc(N2CCO[C@H]([C@@]34CC[C@@H](c5cc(-c6c(F)cccc6F)nnc53)C4(C)C)C2)n1` [Compound 134, 2-[5-(2,6-difluorophenyl)-11,11-dimethyl-3,4-diazatricyclo[6.2.1.02,7]undeca-2,4,6-trien-1-yl]-4-(4-methyloxazol-2-yl)morpholine] yielded an IC50 of 4 nM.

Regarding `CC(=O)N1CCO[C@@H]([C@@]23CC[C@@H](c4cc(-c5c(F)cccc5F)nnc42)C3(C)C)C1` [Compound 72, 1-((S)-2-((5R,8R)-3-(2,6-difluorophenyl)-9,9-dimethyl-5,6,7,8-tetrahydro-5,8-methanocinnolin-8-yl)morpholino)ethanone], the IC50 was determined as 119 nM.

Compound `CC(CO)NC(=O)N1CCO[C@H]([C@@]23CC[C@@H](c4cc(-c5c(F)cccc5F)nnc42)C3(C)C)C1` (stereo in doubt) [Compound 141, 2-[5-(2,6-difluorophenyl)-11,11-dimethyl-3,4-diazatricyclo[6.2.1.02,7]undeca-2,4,6-trien-1-yl]-N-(2-hydroxy-1-methyl-ethyl)morpholine-4-carboxamide] registered an IC50 of 9.5 nM.

`CC1(C)[C@H]2CC[C@]1([C@H]1CNCCO1)c1nnc(-c3c(F)cccc3F)cc12` [Compound 70, (S)-2-((5R,8R)-3-(2,6-difluorophenyl)-9,9-dimethyl-5,6,7,8-tetrahydro-5,8-methanocinnolin-8-yl)morpholine]: the IC50 was 367 nM.

Turning to `CC1(C)[C@H]2CC[C@]1([C@H]1CN(CC(F)F)CCO1)c1nnc(-c3c(F)cccc3F)cc12` [Compound 80, (S)-4-(2,2-difluoroethyl)-2-((5R,8R)-3-(2,6-difluorophenyl)-9,9-dimethyl-5,6,7,8-tetrahydro-5,8-methanocinnolin-8-yl)morpholine], the IC50 was determined as 674 nM.

Take `CC1(C)[C@H]2CC[C@]1([C@@H]1CN(C(=O)c3c[nH]c(=O)cn3)CCO1)c1nnc(-c3c(F)cccc3F)cc12` [Compound 118, 5-[2-[5-(2,6-difluorophenyl)-11,11-dimethyl-3,4-diazatricyclo[6.2.1.02,7]undeca-2,4,6-trien-1-yl]morpholine-4-carbonyl]-1H-pyrazin-2-one]: the IC50 turned out to be 11 nM. This IC50 is about 61-fold lower than that of the compound before.

For `CC1(C)C2CCC1(C1CCCN(C(=O)c3ncco3)C1)c1nnc(-c3c(F)cccc3F)cc12` (centres unmarked) [Compound 159, [3-[5-(2,6-difluorophenyl)-11,11-dimethyl-3,4-diazatricyclo[6.2.1.02,7]undeca-2,4,6-trien-1-yl]-1-piperidyl]-oxazol-2-yl-methanone], the IC50 came out at 4.5 nM.

With `CC1(C)[C@H]2CC[C@]1(c1nnc(C(N)=O)o1)c1nnc(-c3c(F)cccc3F)cc12` [Compound 2, 5-((5R,8R)-3-(2,6-difluorophenyl)-9,9-dimethyl-5,6,7,8-tetrahydro-5,8-methanocinnolin-8-yl)-1,3,4-oxadiazole-2-carboxamide], the IC50 stood at 520 nM. This IC50 is about 120-fold higher than that of the compound before.

Turning to `CC1(C)[C@H]2CC[C@]1(c1cncc3nccn13)c1nnc(-c3c(F)cccc3F)cc12` [Compound 109, (5R,8S)-3-(2,6-difluorophenyl)-8-(imidazo[1,2-a]pyrazin-5-yl)-9,9-dimethyl-5,6,7,8-tetrahydro-5,8-methanocinnoline], the IC50 was 175 nM.

The compound `CC(=O)N1CCO[C@H]([C@@]23CC[C@@H](c4cc(-c5c(F)cccc5F)nnc42)C3(C)C)C1` [Compound 64, 1-((R)-2-((5R,8R)-3-(2,6-difluorophenyl)-9,9-dimethyl-5,6,7,8-tetrahydro-5,8-methanocinnolin-8-yl)morpholino)ethanone] registered an IC50 of 308 nM.

On to `CC[C@@H](O[C@@]12CC[C@@H](c3cc(-c4c(F)cccc4F)nnc31)C2(C)C)c1nc(COC)no1` [Compound 41, 5-((R)-1-(((5S,8R)-3-(2,6-difluorophenyl)-9,9-dimethyl-5,6,7,8-tetrahydro-5,8-methanocinnolin-8-yl)oxy)propyl)-3-(methoxymethyl)-1,2,4-oxadiazole], for which the IC50 is 4 nM.

In the case of `CC1(C)[C@H]2CC[C@]1(Oc1cnccn1)c1nnc(-c3c(F)cccc3F)cc12` [Compound 11, (5S,8R)-3-(2,6-difluorophenyl)-9,9-dimethyl-8-(pyrazin-2-yloxy)-5,6,7,8-tetrahydro-5,8-methanocinnoline], the IC50 was 79.9 nM. Against the preceding compound, the IC50 is about 20-fold higher.

In turn, `Cc1noc(N2CCO[C@H]([C@@]34CC[C@@H](c5cc(-c6c(F)cccc6F)nnc53)C4(C)C)C2)n1` [Compound 84, (R)-2-((5R,8R)-3-(2,6-difluorophenyl)-9,9-dimethyl-5,6,7,8-tetrahydro-5,8-methanocinnolin-8-yl)-4-(3-methyl-1,2,4-oxadiazol-5-yl)morpholine] had an IC50 of 277 nM.

Consider `CC1(C)[C@H]2CC[C@]1([C@H]1CCCN(c3cccc(=O)[nH]3)C1)c1nnc(-c3c(F)cccc3F)cc12` [Compound 174, 6-[3-[5-(2,6-difluorophenyl)-11,11-dimethyl-3,4-diazatricyclo[6.2.1.02,7]undeca-2,4,6-trien-1-yl]-1-piperidyl]-1H-pyridin-2-one], for which the half-inhibitory concentration (IC50) worked out at 36 nM.

For the compound `Cc1n[nH]c(N2CCO[C@H]([C@@]34CC[C@@H](c5cc(-c6c(F)cccc6F)nnc53)C4(C)C)C2)n1` [Compound 142, 2-[5-(2,6-difluorophenyl)-11,11-dimethyl-3,4-diazatricyclo[6.2.1.02,7]undeca-2,4,6-trien-1-yl]-4-(3-methyl-1H-1,2,4-triazol-5-yl)morpholine], the IC50 was 19 nM. This IC50 lies about 1.9-fold lower than the previous one.

As to `CC1(C)[C@H]2CC[C@]1([C@@H]1CN(Cc3ccccc3)CCO1)c1nnc(-c3c(F)cccc3F)cc12` [Compound 60, (R)-4-benzyl-2-((5R,8R)-3-(2,6-difluorophenyl)-9,9-dimethyl-5,6,7,8-tetrahydro-5,8-methanocinnolin-8-yl)morpholine], the half-maximal inhibitory concentration (IC50) was found to be 317 nM.

With `CN1CCNC[C@H]1[C@@]12CC[C@@H](c3cc(-c4c(F)cccc4F)nnc31)C2(C)C` [Compound 178, 5-(2,6-difluorophenyl)-11,11-dimethyl-1-(1-methylpiperazin-2-yl)-3,4-diazatricyclo[6.2.1.02,7]undeca-2,4,6-triene], the IC50 was found to be 13 nM.

`CN1CCN(C)[C@H]([C@@]23CC[C@@H](c4cc(-c5c(F)cccc5F)nnc42)C3(C)C)C1` [Compound 180, 5-(2,6-difluorophenyl)-1-(1,4-dimethylpiperazin-2-yl)-11,11-dimethyl-3,4-diazatricyclo[6.2.1.02,7]undeca-2,4,6-triene] yielded an IC50 of 16 nM.

For the compound `Cc1n[nH]c(C(=O)N2CCC[C@H]([C@@]34CC[C@@H](c5cc(-c6c(F)cccc6F)nnc53)C4(C)C)C2)n1` [Compound 129, [3-[5-(2,6-difluorophenyl)-11,11-dimethyl-3,4-diazatricyclo[6.2.1.02,7]undeca-2,4,6-trien-1-yl]-1-piperidyl]-(3-methyl-1H-1,2,4-triazol-5-yl)methanone], the IC50 was determined as 83 nM.

In turn, `CC1(C)[C@H]2CC[C@]1(O[C@@H](C(N)=O)C1CC1)c1nnc(-c3c(F)cccc3F)cc12` [Compound 44] returned an IC50 of 14.5 nM.
